The test system of assay [1] is MS sera. Put plainly: PEPSCAN-based ELISA, binding of MS sera to library peptides. Also on record: species or system human. Conditions: ELISA binding value, MS sera n = 9. The text has this:
(§1) The linear and CLIPS peptides are synthesized based on the amino acid sequence of the target protein using standard Fmoc-chemistry and deprotected using […] with scavengers. The constrained peptides are synthesized on chemical scaffolds in order to reconstruct conformational epitopes, using Chemically Linked Peptides on Scaffolds (CLIPS) technology (Timmerman et al. (2007). For example, the single looped peptides are synthesized containing a dicysteine, which was cyclized by treating with alpha, alpha′-dibromoxylene and the size of the loop is varied by introducing cysteine residues at variable spacing. If other cysteines besides the newly introduced cysteines are present, they are replaced by alanine. The side-chains of the multiple cysteines in the peptides are coupled to CLIPS templates by reacting onto credit-card format polypropylene PEPSCAN cards (455 peptide formats/card) with a 0.5 mM solution of CLIPS template such as 1,3-bis (bromomethyl) benzene in ammonium bicarbonate (20 mM, pH 7.9)/acetonitrile (1:1(v/v)). The cards are gently shaken in the solution for 30 to 60 minutes while completely covered in solution. Finally, the cards are washed extensively with excess of H2O and sonicated in distrupt-buffer containing 1 percent SDS/0.1 percent beta-mercaptoethanol in PBS (pH 7.2) at 70° C. for 30 minutes, followed by sonication in H2O for another 45 minutes.
(§2) The binding of antibody to each peptide is tested in a PEPSCAN-based ELISA. The 455-well credit card format polypropylene cards containing the covalently linked peptides are incubated with primary antibody solution for example consisting of 1/1000 diluted serum in blocking solution, for example 4% horse serum, 5% ovalbumin (w/v) in PBS/1% Tween. After washing, the peptides are incubated with a 1/1000 dilution of antibody peroxidase conjugate for one hour at 25° C. After washing, the peroxidase substrate 2,2′-azino-di-3-ethylbenzthiazoline sulfonate (ABTS) and 2 microlitres of 3 percent H2O2 are added. After one hour, the color development are measured. The color development are quantified with a charge coupled device (CCD)-camera and an image processing system (Slootstra et al., 1996).
(§3) The raw data are optical values obtained by a CCD-camera calibrated to export absorption values compatible with a standard 96-well plate ELISA-reader. First the CCD-camera makes a picture of the card before peroxidase coloring and then again a picture after the peroxidase coloring. These two pictures are substracted from each other yielding a binding value for each peptide.
(§4) All peptides have been synthesized in a peptide array format and the binding of 20 different sera to all peptide libraries were measured in an ELISA based set up following the procedure described in detail in the method section “Peptide synthesis and screening assays”. In particular 2 sets of experiments were performed on the 2 libraries by using 2 different dilutions of the human patients sera. In the first set of experiment the 20 sera were used at 1:2500 dilutions, while in the second experiment the dilution of the sera was 1:1000. The binding of the different sera to all peptides was quantified and analyzed in detail (Tables 1 and 2, FIGS. 15A, B, C, D and […]
In general terms: In an ELISA, binding on a coated surface is turned into a signal by an enzyme label.

Assay [2] concerns CTRL sera. The experiment in a line: PEPSCAN-based ELISA, binding of control (CTRL) sera to library peptides. The arrangement: species or system human. Particulars: ELISA binding value, CTRLs n = 10.
Description: as §1, §2, §3, §4

Consider “CVRGQTAESLAVHNITCSLAVHNITVSEQKISC [SEQ ID NO: 156]”, for which, in assay [1] (NOX2 library), the “MEAN MS” value stood at 546.444. For the same sequence, the “MEAN CTRL” value in assay [2] (NOX2 library) is 304.75.
On the same counts, the results for “CVRGQTAESLAVHNITCVHNITVSEQKISEWGC [SEQ ID NO: 148]” are 445.278 and 263.5.
On the same counts, the results for “CVSEQKISEWGKIKESCEQKISEWGKIKESPIC [SEQ ID NO: 84]” are 811.056 and 443.5.
On the same counts, the results for “CVSEQKISEWGKIKESCGDRQNESYLNFARKRC [SEQ ID NO: 112]” are 846.778 and 462.45.
With “CVSEQKISEWGKIKESCQNESYLNFARKRIKNC [SEQ ID NO: 64]”, the “MEAN MS” value in assay [1] (NOX2 library) is on record as 804.556. Also, in assay [2] (NOX2 library), the “MEAN CTRL” value is 402.9.
The like results for “CVSEQKISEWGKIKESCTVSEQKISEWGKIKEC [SEQ ID NO: 142]” were, in that order, 760.333 and 446.5.
Regarding “CVSEQKISEWGKIKESCVSEQKISEWGKIKESC [SEQ ID NO: 115]”, the “MEAN MS” value in assay [1] (NOX2 library) worked out at 756.639. For the same sequence, the “MEAN CTRL” value in assay [2] (NOX2 library) turned out to be 432.35.
The like results for DPYSVALSELAARQN [SEQ ID NO: 78] were, in that order, 565.389 and 325.05.
For the sequence DPYSVALSELGDRQN [SEQ ID NO: 132], the “MEAN MS” value in assay [1] (NOX2 library) turned out to be 300.556. In assay [2] (NOX2 library), the “MEAN CTRL” value was 177.25.
On the same counts, the results for ESYLNFARK [SEQ ID NO: 107] are 535.667 and 296.3.
FARKRIKNP [SEQ ID NO: 67]: the “MEAN MS” value in assay [1] (NOX2 library) was found to be 666.111. Besides, the “MEAN CTRL” value in assay [2] (NOX2 library) is reported as 337.4.
On to GDRQNESYLNAGRKR [SEQ ID NO: 68], for which, in assay [1] (NOX2 library), the “MEAN MS” value is recorded as 547.278. The “MEAN CTRL” value in assay [2] (NOX2 library) amounted to 294.2.
The like results for GDRQNESYLNFARKR [SEQ ID NO: 120] were, in that order, 325.333 and 163.95.
On the same counts, the results for GKIKECPIP [SEQ ID NO: 102] are 594.611 and 324.35.
As for GYRWPLPSK [Peptide 14], the “MEAN MS” value in assay [1] (5HT2A receptor library) is reported as 623.00. For the same sequence, the “MEAN CTRL” value in assay [2] (5HT2A receptor library) is listed as 322.80.
Regarding KISEWGKIK [SEQ ID NO: 83], in assay [1] (NOX2 library), the “MEAN MS” value turned out to be 404.500. Also, the “MEAN CTRL” value in assay [2] (NOX2 library) was 223.9.
Turning to LGDRQNESYLAAARK [SEQ ID NO: 127], the “MEAN MS” value in assay [1] (NOX2 library) is given as 478.278. Further, the “MEAN CTRL” value in assay [2] (NOX2 library) is on record as 262.75.
On the same counts, the results for LGDRQNESYLNFARK [SEQ ID NO: 104] are 457.556 and 252.4.
Take LNFARKRIK [SEQ ID NO: 59]: in assay [1] (NOX2 library), the “MEAN MS” value was 557.056. For the same sequence, the “MEAN CTRL” value in assay [2] (NOX2 library) amounted to 294.6.
The like results for LNFARKRIKNAAGGL [SEQ ID NO: 91] were, in that order, 354.778 and 187.85.
As to LTILYGYRWPAASKL [Peptide 3], the “MEAN MS” value in assay [1] (5HT2A receptor library) amounted to 653.28. In addition, in assay [2] (5HT2A receptor library), the “MEAN CTRL” value is recorded as 322.35.
On the same counts, the results for LTILYGYRWPLPSKL [Peptide 8] are 647.17 and 340.05.
For the sequence NESYLNFARKAAKNP [SEQ ID NO: 62], the “MEAN MS” value in assay [1] (NOX2 library) stood at 505.278. Moreover, the “MEAN CTRL” value in assay [2] (NOX2 library) is 279.1.
With NESYLNFARKRIKNP [SEQ ID NO: 109], the “MEAN MS” value in assay [1] (NOX2 library) is reported as 602.889. Besides, the “MEAN CTRL” value in assay [2] (NOX2 library) is on record as 333.75.
On the same counts, the results for NFARKRIKN [SEQ ID NO: 58] are 613.833 and 288.95.
The like results for NFARKRIKNPAAGLY [SEQ ID NO: 77] were, in that order, 604.167 and 323.85.
On the same counts, the results for NITVCEQKISAAGKI [SEQ ID NO: 96] are 564.500 and 314.2.
As to QDDSKVFKEGAALLA [Peptide 33], in assay [1] (5HT2A receptor library), the “MEAN MS” value came out at 439.11. For the same sequence, the “MEAN CTRL” value in assay [2] (5HT2A receptor library) was found to be 263.70.
In the case of QKISEWGKI [SEQ ID NO: 146], the “MEAN MS” value in assay [1] (NOX2 library) is reported as 508.333. Further, the “MEAN CTRL” value in assay [2] (NOX2 library) was determined as 298.2.
On the same counts, the results for QKISEWGKIKAAPIP [SEQ ID NO: 88] are 701.889 and 364.3.
In the case of QNESYLNFARAAIKN [SEQ ID NO: 113], in assay [1] (NOX2 library), the “MEAN MS” value stood at 421.722. For the same sequence, in assay [2] (NOX2 library), the “MEAN CTRL” value was 244.
The like results for QNESYLNFARKRIKN [SEQ ID NO: 63] were, in that order, 610.778 and 309.65.
The like results for RQNESYLNFARKRIK [SEQ ID NO: 76] were, in that order, 458.833 and 241.2.
Regarding STTNSLMQLNAATRL [Peptide 31], the “MEAN MS” value in assay [1] (5HT2A receptor library) amounted to 611.83. In addition, in assay [2] (5HT2A receptor library), the “MEAN CTRL” value is reported as 385.15.
For SYLNFARKRIAAPEG [SEQ ID NO: 71], the “MEAN MS” value in assay [1] (NOX2 library) is 472.000. Also, the “MEAN CTRL” value in assay [2] (NOX2 library) amounted to 259.75.
For the sequence TILYGYRWPLPSKLC [Peptide 29], the “MEAN MS” value in assay [1] (5HT2A receptor library) was found to be 651.50. Moreover, the “MEAN CTRL” value in assay [2] (5HT2A receptor library) is on record as 378.20.
As to TVCEQKISEWGKIKE [SEQ ID NO: 94], in assay [1] (NOX2 library), the “MEAN MS” value is reported as 514.944. Further, the “MEAN CTRL” value in assay [2] (NOX2 library) was 289.4.
In the case of TVDSENRTNLAAEGC [Peptide 23], in assay [1] (5HT2A receptor library), the “MEAN MS” value was found to be 587.33. Moreover, the “MEAN CTRL” value in assay [2] (5HT2A receptor library) was determined as 348.10.
VNARVNNSDPAAVAL [SEQ ID NO: 118]: the “MEAN MS” value in assay [1] (NOX2 library) came to 426.444. The “MEAN CTRL” value in assay [2] (NOX2 library) amounted to 219.15.
The like results for WCVNARVNNSDPYSV [SEQ ID NO: 121] were, in that order, 283.889 and 163.8.
On the same counts, the results for WGKIKECPI [SEQ ID NO: 116] are 501.389 and 303.25.
On the same counts, the results for YLNFARKRI [SEQ ID NO: 140] are 601.667 and 345.85.
For the sequence YLNFARKRIKAAEGG [SEQ ID NO: 119], the “MEAN MS” value in assay [1] (NOX2 library) worked out at 299.167. Further, the “MEAN CTRL” value in assay [2] (NOX2 library) was found to be 181.3.
For the sequence YRWPLPSKL [Peptide 5], the “MEAN MS” value in assay [1] (5HT2A receptor library) is listed as 566.00. In assay [2] (5HT2A receptor library), the “MEAN CTRL” value is on record as 285.70.

Source of the values: US11505592B2, “Diagnosis and therapy of multiple sclerosis” (PRINDEX S.R.L., priority 2015, dated 2022).
